Assay results as given in the NIST ThermoML archive (doi:10.1021/je100104v).

Key:
[1] = xn = mol fraction of the nth substance listed; conditions: Liquid; for electrical conductivity / viscosity: 101.3 kPa; for electrical conductivity: Eutech Cyberscan Con 11; for mass density: 101 kPa
[2] = refractive index (Na D-line) (dimensionless); xn = mol fraction of the nth substance listed; conditions: 101.3 kPa, Liquid, Standard Abbe refractometry

C[P+](c1ccccc1)(c1ccccc1)c1ccccc1.[Br-] [methyltriphenylphosphonium bromide] + OCCO
Conditions | electrical conductivity, [1] [S/m] | mass density, [1] [kg/m3] | refractive index, [2] | viscosity, [1] [mPa·s]
278.1 K, x1 = 0.2 | 0.0371 | – | – | 345
288.15 K, x1 = 0.2 | 0.055 | – | – | 186.1
288.15 K, x2 = 0.2 | – | – | 1.5622 | –
298.15 K, x1 = 0.2 | 0.0788 | 1232.6 | – | 109.8
308.15 K, x1 = 0.2 | 0.109 | 1225.6 | – | 68.6
308.15 K, x2 = 0.2 | – | – | 1.5542 | –
318.15 K, x1 = 0.2 | 0.144 | 1218.5 | – | 39.5
328.15 K, x1 = 0.2 | 0.188 | 1211.4 | – | 19.7
328.15 K, x2 = 0.2 | – | – | 1.5483 | –
338.15 K, x1 = 0.2 | 0.234 | 1204.3 | – | 5.4
338.15 K, x2 = 0.2 | – | – | 1.5446 | –
348.15 K, x1 = 0.2 | 0.285 | 1197.2 | – | 1.8
358.15 K, x1 = 0.2 | 0.338 | 1190 | – | –
368.15 K, x1 = 0.2 | 0.382 | – | – | –

NC(=O)C(F)(F)F [2,2,2-trifluoroacetamide] + C[P+](c1ccccc1)(c1ccccc1)c1ccccc1.[Br-]
Conditions | electrical conductivity, [1] [S/m] | mass density, [1] [kg/m3] | refractive index, [2] | viscosity, [1] [mPa·s]
278.1 K, x2 = 0.111 | 0.0134 | – | – | 657.7
288.15 K, x1 = 0.111 | – | – | 1.4913 | –
288.15 K, x2 = 0.111 | 0.0351 | – | – | 405.9
298.15 K, x1 = 0.111 | – | – | 1.4849 | –
298.15 K, x2 = 0.111 | 0.0848 | 1394.7 | – | 136.5
308.15 K, x1 = 0.111 | – | – | 1.4824 | –
308.15 K, x2 = 0.111 | 0.182 | 1383.7 | – | 71.3
318.15 K, x1 = 0.111 | – | – | 1.4782 | –
318.15 K, x2 = 0.111 | 0.282 | 1372.7 | – | 39
328.15 K, x1 = 0.111 | – | – | 1.4745 | –
328.15 K, x2 = 0.111 | 0.349 | 1361.6 | – | 24.1
338.15 K, x1 = 0.111 | – | – | 1.4737 | –
338.15 K, x2 = 0.111 | 0.418 | 1350.4 | – | 16.6
348.15 K, x2 = 0.111 | 0.482 | 1339.3 | – | 11.1
358.15 K, x2 = 0.111 | 0.55 | 1328.2 | – | 0.9
368.15 K, x2 = 0.111 | 0.609 | – | – | –

C[P+](c1ccccc1)(c1ccccc1)c1ccccc1.[Br-] [methyltriphenylphosphonium bromide] + OCC(O)CO
Conditions | electrical conductivity [S/m] | mass density [kg/m3] | refractive index | viscosity [mPa·s]
[1], 278.1 K, x1 = 0.3636 | 0.00375 | – | – | –
[1], 288.15 K, x1 = 0.3636 | 0.00826 | – | – | –
[1], 298.15 K, x1 = 0.3636 | 0.0165 | 1289.9 | – | –
[1], 308.15 K, x1 = 0.3636 | 0.0315 | 1283 | – | –
[1], 318.15 K, x1 = 0.3636 | 0.0555 | 1275.9 | – | 887.1
[1], 328.15 K, x1 = 0.3636 | 0.0901 | 1268.8 | – | 414.9
[1], 338.15 K, x1 = 0.3636 | 0.127 | 1261.9 | – | 205.7
[1], 348.15 K, x1 = 0.3636 | 0.182 | 1255 | – | 104.8
[1], 358.15 K, x1 = 0.3636 | 0.242 | 1248 | – | 77.4
[1], 368.15 K, x1 = 0.3636 | 0.315 | – | – | 36.9
[2], 288.15 K, x2 = 0.3636 | – | – | 1.5708 | –
[2], 298.15 K, x2 = 0.3636 | – | – | 1.5666 | –
[2], 308.15 K, x2 = 0.3636 | – | – | 1.5656 | –
[2], 318.15 K, x2 = 0.3636 | – | – | 1.5627 | –
[2], 328.15 K, x2 = 0.3636 | – | – | 1.5607 | –
[2], 338.15 K, x2 = 0.3636 | – | – | 1.5578 | –

[Cl-].c1ccc(C[P+](c2ccccc2)(c2ccccc2)c2ccccc2)cc1 [benzyltriphenylphosphonium chloride] + OCCO
Conditions | electrical conductivity, [1] [S/m] | refractive index, [2] | viscosity, [1] [mPa·s]
328.15 K, x1 = 0.25 | 0.0485 | – | 201.9
328.15 K, x2 = 0.25 | – | 1.5258 | –
338.15 K, x1 = 0.25 | 0.0199 | – | 85.5
338.15 K, x2 = 0.25 | – | 1.5309 | –
348.15 K, x1 = 0.25 | 0.00164 | – | 59.3
358.15 K, x1 = 0.25 | 0.00148 | – | 50.5
368.15 K, x1 = 0.25 | 0.00136 | – | 35.9

[Cl-].c1ccc(C[P+](c2ccccc2)(c2ccccc2)c2ccccc2)cc1 [benzyltriphenylphosphonium chloride] + OCC(O)CO
Conditions | electrical conductivity, [1] [S/m] | refractive index, [2] | viscosity, [1] [mPa·s]
328.15 K, x1 = 0.167 | – | – | 553.7
328.15 K, x2 = 0.167 | – | 1.5502 | –
338.15 K, x1 = 0.167 | 0.00187 | – | 339.3
338.15 K, x2 = 0.167 | – | 1.5168 | –
348.15 K, x1 = 0.167 | 0.00167 | – | 118.6
358.15 K, x1 = 0.167 | 0.00151 | – | 75.5
368.15 K, x1 = 0.167 | 0.00139 | – | 38.7
